According to article PMC10657792, “Downstream Allosteric Modulation of NMDA Receptors by 3-Benzazepine Derivatives” (Molecular Neurobiology, 2023):
Where “and” joins values, the source holds several entries; their conditions need not be identical. Equal values may be shown once.

Assays:
Type in all cases: cell-based
[1] = test system: GluN1b wt/ GluN2B wt; assay: TEVC recording of NMDAR currents in X. laevis oocytes, inhibition by compound; settings: X. laevis oocytes; higher for GluN1-1b
Procedure: (§1) The NMDAR was expressed in stage V and VI oocytes originated from X. laevis. Oocytes were provided by Ecocyte Bioscience (Dortmund, Germany), and equimolar amounts of wild-type and mutated GluN1 and GluN2B cRNA were injected (0.8 ng each). The oocytes were incubated in Barth’s solution, containing (mmol l^−1): 88 NaCl, 1 KCl, 0.4 CaCl2, 0.33 Ca(NO3)2, 0.6 MgSO4, 5 TRIS–HCl, 2.4 NaHCO3, supplemented with 80 mg l^−1 theophylline, 63 mg l^−1 benzylpenicillin, 40 mg l^−1 streptomycin, and 100 mg l^−1 gentamycin and maintained at 18 °C until usage. After injection, the oocytes were incubated for 5 days at 18 °C. Subsequently, the activity of the expressed NMDARs in the oocytes was recorded by two-electrode voltage clamp (TEVC).
(§2) The compounds were retrieved as 10 mM stock solutions in DMSO and were subsequently diluted with agonist solution and adjusted to 0.1% DMSO concentration. Inhibition of each compound was measured via TEVC in X. laevis oocytes at room temperature using a Turbo Tec 10CX amplifier (NPI electronic, Tamm, Germany), NI USB 6221 DA/AD Interface (National Instruments, Austin, USA), and GePulse Software (Dr. Michael Pusch, Genova, Italy). Ba^2+-Ringer, consisting of 10 mM HEPES, 90 mM NaCl, 1 mM KCl, and 1.5 mM BaCl2, adjusted to pH 7.4, was used for TEVC measurements. Agonist solution containing 10 µM glycine and 10 µM (S)-glutamate was prepared in Ba^2+-Ringer, and the measurements were performed at a holding potential of − 70 mV, using electrodes with a glass capillary filled with 3 M KCl and a resistance between 0.5 and 1.5 MΩ. The compounds were tested by applying ascending concentrations, ranging from 1 to 30,000 nM, in at least six oocytes. Example traces for all recorded conditions can be found in Supplementary Figs. S2–S9.
(§3) TEVC data were analyzed using Ana (Dr. Michael Pusch, Genova, Italy), and statistics were performed using OriginPro 2020 (OriginLab Corporation, Northampton, USA). The inhibitory effect of each compound is calculated using the following equation: inhibition=1-Ic-Ih/Ia-Ih where Ih describes the current in the absence of agonists; Ia represents the steady-state current in the presence of the agonists; and Ic is defined as the steady-state after binding of agonist and compound. All dose response curves are fitted to the following logistic equation: y=A1-A2/1+x/x0^p+A2 where A1 describes the minimal inhibition of a compound and was set to 0; A2 represents the maximal inhibition of a compound; p is the slope of the curve; x0 is defined as the concentration at half-maximal inhibition; and x is the tested concentration. Data were statistically analyzed by one-way ANOVA and Tukey post-hoc mean comparison test in OriginPro 2020 (OriginLab Corporation, Northampton, USA). p values are indicated by * for p < 0.05, ** for p < 0.01, and *** for p < 0.001.

[2] = molecular target: T1, GluN1a wt/ GluN2B wt (Rattus norvegicus, UniProt P35439+Q00960); assay: as above
Procedure: as §1, §2, §3

[3] = molecular target: T2, GluN1b wt/ GluN2B wt (Rattus norvegicus, UniProt P35439+Q00960); assay: as above
Procedure: as §1, §2, §3

[4] = molecular target: T1, GluN1a wt/ GluN2B wt; assay: TEVC recording in X. laevis oocytes in the presence of agonists and 200 µM spermine; settings: agonists + 200 µM spermine; fitted curve
Procedure: as §1
as §2, with “The compounds were tested by applying ascending concentrations, ranging from 1 to 30,000 nM, in at least six oocytes.” left out
as §3, with “All dose response curves are fitted to the following logistic equation: y=A1-A2/1+x/x0^p+A2 where A1 describes the minimal inhibition of a compound and was set to 0; A2 represents the maximal inhibition of a compound; p is the slope of the curve; x0 is defined as the concentration at half-maximal inhibition; and x is the tested concentration.” left out
(§4) The NMDAR is probably modulated by polyamines such as spermine and spermidine in a similar way to exon 5 [22]. As described above, we recorded GluN1-1a/GluN2B and GluN1-1b/GluN2B expressing oocytes with 200 µM spermine and ascending concentrations of (R)-OF-NB1, to examine if the allosteric effects are mechanically in conjunction or can be potentiated. […]

[5] = molecular target: T2, GluN1b wt/ GluN2B wt; assay: as above; settings: agonists + 200 µM spermine; fitted curve
Procedure: as §1
as §2, with “The compounds were tested by applying ascending concentrations, ranging from 1 to 30,000 nM, in at least six oocytes.” left out
as §3, with “All dose response curves are fitted to the following logistic equation: y=A1-A2/1+x/x0^p+A2 where A1 describes the minimal inhibition of a compound and was set to 0; A2 represents the maximal inhibition of a compound; p is the slope of the curve; x0 is defined as the concentration at half-maximal inhibition; and x is the tested concentration.” left out
as §4

[6] = molecular target: GluN1a wt/ GluN2B N192A (Rattus norvegicus, UniProt P35439+Q00960, N192A); assay: TEVC recording in X. laevis oocytes, GluN2B mutant screening; settings: for inhibition (%): GluN1-1a GluN2B N192A, single oocytes
[7] = molecular target: GluN1a wt/ GluN2B Q110A (Rattus norvegicus, UniProt P35439+Q00960, Q110A); assay: as above; settings: fitted curve
[8] = oocytes, 10 µM glycine + 10 µM (S)-glutamate, -70 mV, fitted curve

T2 sequence (Q00960 27-1482, other chains not shown): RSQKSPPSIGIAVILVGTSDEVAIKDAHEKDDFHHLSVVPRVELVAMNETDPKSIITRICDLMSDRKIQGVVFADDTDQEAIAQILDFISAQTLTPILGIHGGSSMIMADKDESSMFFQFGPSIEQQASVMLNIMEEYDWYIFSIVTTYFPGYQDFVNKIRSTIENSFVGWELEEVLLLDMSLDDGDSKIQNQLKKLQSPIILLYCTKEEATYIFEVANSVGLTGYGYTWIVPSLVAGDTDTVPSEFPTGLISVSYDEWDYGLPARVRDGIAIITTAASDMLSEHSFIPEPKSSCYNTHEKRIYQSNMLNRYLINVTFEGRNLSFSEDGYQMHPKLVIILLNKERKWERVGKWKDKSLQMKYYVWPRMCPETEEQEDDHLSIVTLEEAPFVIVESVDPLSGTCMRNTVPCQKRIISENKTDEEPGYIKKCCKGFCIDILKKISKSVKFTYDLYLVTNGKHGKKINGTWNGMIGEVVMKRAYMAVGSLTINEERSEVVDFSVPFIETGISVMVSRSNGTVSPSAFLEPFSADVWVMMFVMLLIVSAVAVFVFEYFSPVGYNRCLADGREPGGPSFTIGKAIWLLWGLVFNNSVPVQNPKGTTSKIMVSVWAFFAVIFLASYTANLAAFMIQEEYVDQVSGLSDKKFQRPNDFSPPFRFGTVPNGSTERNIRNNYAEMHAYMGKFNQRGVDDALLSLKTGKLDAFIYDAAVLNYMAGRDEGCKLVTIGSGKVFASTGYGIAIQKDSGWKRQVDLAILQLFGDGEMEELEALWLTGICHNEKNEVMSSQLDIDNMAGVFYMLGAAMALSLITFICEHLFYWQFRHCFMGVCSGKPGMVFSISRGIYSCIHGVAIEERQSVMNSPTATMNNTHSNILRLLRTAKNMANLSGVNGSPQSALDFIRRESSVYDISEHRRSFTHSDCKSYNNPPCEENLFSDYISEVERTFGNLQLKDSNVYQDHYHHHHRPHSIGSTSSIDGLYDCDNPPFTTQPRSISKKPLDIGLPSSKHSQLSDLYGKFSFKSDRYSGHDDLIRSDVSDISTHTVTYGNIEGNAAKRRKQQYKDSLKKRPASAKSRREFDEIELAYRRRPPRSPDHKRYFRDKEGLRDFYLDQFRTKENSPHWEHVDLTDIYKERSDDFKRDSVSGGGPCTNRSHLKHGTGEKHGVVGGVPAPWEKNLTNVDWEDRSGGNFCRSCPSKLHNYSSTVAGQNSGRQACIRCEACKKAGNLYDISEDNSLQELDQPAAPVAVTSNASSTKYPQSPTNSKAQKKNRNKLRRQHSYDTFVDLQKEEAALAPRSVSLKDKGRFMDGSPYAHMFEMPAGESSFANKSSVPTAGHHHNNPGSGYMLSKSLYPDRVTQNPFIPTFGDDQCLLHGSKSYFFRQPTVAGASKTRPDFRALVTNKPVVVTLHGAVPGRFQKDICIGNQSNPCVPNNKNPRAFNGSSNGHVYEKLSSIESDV
T1 sequence (Q00960 27-1482, other chains not shown): as above
Sequence of GluN1a wt/ GluN2B N192A (Q00960 27-1482 N192A, other chains not shown): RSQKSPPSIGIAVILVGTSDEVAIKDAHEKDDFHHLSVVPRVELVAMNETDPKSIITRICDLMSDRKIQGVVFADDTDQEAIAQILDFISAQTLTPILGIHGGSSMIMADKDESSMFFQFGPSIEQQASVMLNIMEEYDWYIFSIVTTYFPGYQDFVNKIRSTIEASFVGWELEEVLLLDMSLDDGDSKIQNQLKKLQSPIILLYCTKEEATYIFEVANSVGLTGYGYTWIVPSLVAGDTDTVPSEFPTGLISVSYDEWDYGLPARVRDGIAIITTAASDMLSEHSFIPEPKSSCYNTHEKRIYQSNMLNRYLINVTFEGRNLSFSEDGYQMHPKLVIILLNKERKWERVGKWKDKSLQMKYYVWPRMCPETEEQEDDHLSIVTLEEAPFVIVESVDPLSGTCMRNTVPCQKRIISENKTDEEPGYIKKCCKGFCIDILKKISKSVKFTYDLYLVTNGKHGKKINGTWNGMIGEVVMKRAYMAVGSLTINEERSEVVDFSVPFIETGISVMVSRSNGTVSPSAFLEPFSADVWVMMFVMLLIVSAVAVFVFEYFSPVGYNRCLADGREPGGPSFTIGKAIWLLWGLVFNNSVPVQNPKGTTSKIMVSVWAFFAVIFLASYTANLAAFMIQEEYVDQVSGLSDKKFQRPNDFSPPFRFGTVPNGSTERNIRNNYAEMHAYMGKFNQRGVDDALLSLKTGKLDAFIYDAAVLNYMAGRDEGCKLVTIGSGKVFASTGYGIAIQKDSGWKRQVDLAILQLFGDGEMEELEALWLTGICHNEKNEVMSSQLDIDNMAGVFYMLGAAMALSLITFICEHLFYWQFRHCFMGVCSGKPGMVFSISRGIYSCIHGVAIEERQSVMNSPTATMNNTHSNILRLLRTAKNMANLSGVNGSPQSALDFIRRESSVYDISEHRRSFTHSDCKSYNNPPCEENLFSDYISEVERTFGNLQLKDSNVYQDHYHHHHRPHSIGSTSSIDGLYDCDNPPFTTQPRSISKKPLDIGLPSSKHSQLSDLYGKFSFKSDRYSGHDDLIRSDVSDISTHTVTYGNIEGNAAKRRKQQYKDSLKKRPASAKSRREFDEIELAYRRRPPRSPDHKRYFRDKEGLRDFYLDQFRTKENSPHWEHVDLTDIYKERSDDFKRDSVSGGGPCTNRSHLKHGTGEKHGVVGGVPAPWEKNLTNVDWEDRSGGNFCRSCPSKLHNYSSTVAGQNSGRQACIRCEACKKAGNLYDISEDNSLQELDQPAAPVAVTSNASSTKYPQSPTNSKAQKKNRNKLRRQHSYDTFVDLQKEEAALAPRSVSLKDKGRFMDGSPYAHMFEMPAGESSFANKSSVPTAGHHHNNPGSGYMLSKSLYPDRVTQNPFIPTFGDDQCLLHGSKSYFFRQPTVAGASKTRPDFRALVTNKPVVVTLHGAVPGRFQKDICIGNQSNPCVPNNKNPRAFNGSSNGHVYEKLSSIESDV

**Q.** For Oc1ccc2c(c1)CCN(CCCCc1ccccc1F)C[C@@H]2O [(R)-OF-NB1], which “IC50 of splice variant containing exon 5 (GluN1-1b) relative to IC50 of GluN1-1a” value [1] is on record?
**A.** Its value is “sevenfold”.

**Q.** What about the inhibition at 10 µM ([2]; GluN1-1a/ GluN2B, compound concentration 10 μM, single oocytes) of the same molecule?
**A.** The inhibition at 10 µM was 88.1%.

**Q.** What about the inhibition at 30 µM ([2]; GluN1-1a/ GluN2B, compound concentration 30 μM, single oocytes) of the same molecule?
**A.** The inhibition at 30 µM was 91.8%.

**Q.** And the “antagonist concentration at which oocytes were already inhibited” value ([2]; TEVC example traces)?
**A.** The value was 0.001 µM.

**Q.** What about the Hill coefficient ([2]; fitted curve) of the same molecule?
**A.** Its Hill coefficient is 0.9.

**Q.** What about the IC50 [2, 8] of the same molecule?
**A.** The IC50 was 97 nM.

**Q.** What about the “inhibition (%)” value ([3]; GluN1-1b, compound 10 nM, single oocyte, 0.01 µM) of the same molecule?
**A.** Its value is -3.681% and 0.325% and 2.192% and 0.884% and -0.428% and 3.985% and 0.078% and 0.089%.

**Q.** And the inhibition at 1 µM ([3]; GluN1-1b, compound 1000 nM, single oocyte)?
**A.** Its inhibition at 1 µM is 72.1%.

**Q.** And the inhibition at 10 µM ([3]; GluN1-1b, compound 10000 nM, single oocyte)?
**A.** Its inhibition at 10 µM is 82.7%.

**Q.** What about the inhibition at 30 µM ([3]; GluN1-1b, compound 30000 nM, single oocyte) of the same molecule?
**A.** The inhibition at 30 µM was 84.9%.

**Q.** What about the “inhibition (%)” value ([3]; GluN1-1b/ GluN2B, compound concentration 0.001 μM, single oocytes, 0.001 µM) of the same molecule?
**A.** Its value is 0.0934% and -0.03337% and 1.1426% and -0.02965% and -0.02382% and 0.3791% and 0.2758%.

**Q.** What about the “inhibition (%)” value ([3]; GluN1-1b/ GluN2B, compound concentration 0.01 μM, single oocytes, 0.01 µM) of the same molecule?
**A.** Its value is -0.2599% and -0.1168% and -0.1502% and 0.03902% and 1.645% and -0.1483% and 0.439% and 0.2911%.

**Q.** What about the inhibition at 30 µM ([3]; GluN1-1b/ GluN2B, compound concentration 30 μM, single oocytes) of the same molecule?
**A.** Its inhibition at 30 µM is 86.1%.

**Q.** And the “antagonist concentration at which oocytes were inhibited” value ([3]; TEVC example traces)?
**A.** The value was ~ 1 µM.

**Q.** And the “A2 (level of maximal inhibition)” value ([3]; fitted curve)?
**A.** The value was 84.8%.

**Q.** And the Hill coefficient ([3]; fitted curve)?
**A.** Its Hill coefficient is 6.2.

**Q.** What about the IC50 [3, 8] of the same molecule?
**A.** Its IC50 is 675 nM.

**Q.** What about the Hill coefficient [4] of the same molecule?
**A.** The Hill coefficient was 1.4.

**Q.** And the IC50 [4]?
**A.** Its IC50 is 359 nM.

**Q.** What about the Hill coefficient [5] of the same molecule?
**A.** The Hill coefficient was 1.8.

**Q.** And the IC50 [5]?
**A.** The IC50 was 522 nM.

**Q.** And the “inhibition (%)” value ([6]; compound concentration 1 μM, 1 µM)?
**A.** The value was 66.1572% and 79.6651% and 73.3591% and 75.5102% and 40.4665% and 73.3363% and 63.7681%.

**Q.** What about the “inhibition (%)” value ([6]; compound concentration 10 μM, 10 µM) of the same molecule?
**A.** The value was 77.2198% and 89.4737% and 79.5367% and 82.6531% and 48.1744% and 82.1493% and 73.43%.

**Q.** What about the “inhibition (%)” value ([6]; compound concentration 30 μM, 30 µM) of the same molecule?
**A.** The value was 83.1878% and 94.0191% and 84.556% and 89.7959% and 61.6633% and 86.6457% and 82.1256%.

**Q.** What about the IC50 ([6]; agonists 10 µM glycine + 10 µM (S)-glutamate, fitted curve) of the same molecule?
**A.** The IC50 was 282 nM.

**Q.** What about the Hill coefficient ([6]; fitted curve) of the same molecule?
**A.** Its Hill coefficient is 0.4.

**Q.** What about the IC50 ([7]; agonists 10 µM glycine + 10 µM (S)-glutamate) of the same molecule?
**A.** Its IC50 is 210 nM.

**Q.** What about the Hill coefficient [7] of the same molecule?
**A.** The Hill coefficient was 5.4.
